# Experimental data as given in patent publication US7390510B2, “Preparation of hypericin bonded with poly-N-vinylamides” (Sanochemia Pharmazeutika AG, priority 2000, dated 2008).
# Experiments:
# [1] = Time-dependent solubility of hypericin after complexation by PVP (absorption and fluorescence, FIG. 1); format: physicochemical
# [2] = in vivo; cited from earlier work
structure (smiles),measurement,setting,value
Cc1cc(O)c2c(=O)c3c(O)cc(O)c4c5c(O)cc(O)c6c(=O)c7c(O)cc(C)c8c1c2c(c34)c(c78)c65 [hypericin],solubility state in aqueous environment,"[1]; aqueous solution, with or without PVP",forms at once insoluble aggregates
same,absorption in the relevant spectral region,"[1]; aqueous, hypericin+PVP after 30, 60, 180 minutes",no absorption
same,biological half-life,[2],34-38 h
